In patent publication US20060106207A1, “Nucleotide sequences that encode deregulated phosphoglycerate dehydrogenases of coryneform bacteria and method for producing l-serine” (Forschungszentrum Julich GMBH, priority 2002, published 2006):

Tests used:
Type in all cases: biochemical, Corynebacterium glutamicum
[1] = tested on: Wild Type 3-Phosphoglycerate-Dehydrogenase of C. glutamicum; test: Inhibition of wild type 3-phosphoglycerate-dehydrogenase by L-serine in cell-free extracts
Procedure: (§1) The cells were harvested in the exponential growth phase at OD600 of 5 to 8 and washed twice in 100 mM Tris-HCl, pH 7.5. The cell pellets were then frozen at −20° C. until disintegration. The frozen cell pellets were moisturized on ice and resuspended with 2 ml cold Tris-HCl pH 7.5/10% glycerine in a Brenson sonifier for 10 minutes. Then the cell fragments were separated by centrifugation at 13000 rpm and 4° C. in a Sigma -202 MK centrifuge. The thus obtained supernatant is desalted as a raw extract initially on a PD-10 column using the conditions set by the manufacturer (Amersham Pharmacia Biotech) and then immediately subjected to enzyme measurement. The enzyme test relied upon the photometric detection of the formation of NADH in the reaction of 3-phosphoglycerate and NAD to NADH.
In the following tests were made whether the C-terminus foreshortened mutant serAΔ197 was no longer blocked by L-serine. For that purpose initially the inhibition of the 3-phosphoglycerate-dehydrogenase of the wild type was investigated in cell-free extracts of C. glutamicum by L-serine based upon the above described enzyme tests. For that purpose to the test bath were added 1, 5 and 10 mM L-serine and were incubated for 5 minutes at 30° C. The reaction was then started by the addition of 15 mM […]. The incubation was necessary in order to be able to detect an inhibition (Table 4). This time dependency of the L-serine inhibition which required several minutes of incubation before a constant level of inhibition was reached has also been described for other 3-phosphoglycerate-dehydrogenase, for example for the purified enzyme of B. subtilis (Saski R. and Pitzer L., 1975, Eur. J. Biochem., 51:415-427).

[2] = tested on: overexpressed 3-phosphoglycerate-dehydrogenase in strain 13032pZ1serA; test: Inhibition of the overexpressed 3-phosphoglycerate-dehydrogenase by L-serine in strain 13032pZ1serA; details: 10 mM L-serine, 5 minutes of incubation at 30° C.
Procedure: as §1
(§2) In the following tests were made whether the C-terminus foreshortened mutant serAΔ197 was no longer blocked by L-serine. For that purpose initially the inhibition of the 3-phosphoglycerate-dehydrogenase of the wild type was investigated in cell-free extracts of C. glutamicum by L-serine based upon the above described enzyme tests. For that purpose to the test bath were added 1, 5 and 10 mM L-serine and were incubated for 5 minutes at 30° C. The reaction was then started by the addition of 15 mM […]. […]

[3] = tested on: C-terminal foreshortened 3-phosphoglycerate-dehydrogenase mutant (serAΔ197) in strain 13032pZ1serAΔ197; test: Inhibition of the overexpressed 3-phosphoglycerate-dehydrogenase by L-serine in strain 13032pZ1serAΔ197
Procedure: as §1, §2

[4] = tested on: 3-phosphoglycerate-dehydrogenase; test: 3-phosphoglycerate-dehydrogenase enzyme test of strains overexpressing serA or shortened serA alleles
Procedure: The plasmids pziserA, pZiserAΔ79, pZiserAΔ188), pZiserAΔ197, pZiserAΔ205 and pZiserAΔ211 were introduced by electroporation individually into C. glutamicum. As a control, the media plasmid pZ1 was also electroporated into C. glutamicum ATCC 13032. The thus obtained strains 13032pZ1, 13032pZ1serA, 13032pZiserAΔ79, 13032pZiserAΔ188, 13032pZiserAΔ197, 13032pZiserAΔ205 and 13032pZiserAΔ211 were analyzed for overexpression of the 3-phosphoglycerate-dehydrogenase by means of is the 3-phosphoglycerate-dehydrogenase enzyme test. For this purpose the […] strains were activated in complex medium (CgIII=2.5 g NaCl, 10 g bacto-peptone, 10 g bacto-yeast extract, pH 7.4 with 2% glucose) and the minimal medium CGXII and each was separately seeded from the preculture. The medium was identical with the medium CGXII described by Keilhauer et al (Journal of Bacteriology (1993) 175: 5593-5603) but containing additionally 25 μg/mL of kanamycin.
The cells were harvested in the exponential growth phase at OD600 of 5 to 8 and washed twice in 100 mM Tris-HCl, pH 7.5. The cell pellets were then frozen at −20° C. until disintegration. […]
With these test results a specific activity of about 150 mU/mg protein can be determined for the wild-type 3-phosphoglycerate-dehydrogenase activity. […]

| Molecule | Relative 3-Phosphoglycerate-Dehydrogenase Activity ([1]; 1 mM L-serine, 5 minute incubation at 30° C.) [%] | Relative 3-Phosphoglycerate-Dehydrogenase Activity ([1]; 1 mM L-serine, without incubation) [%] | Relative 3-Phosphoglycerate-Dehydrogenase Activity ([1]; 5 mM L-serine, 5 minute incubation at 30° C.) [%] | Relative 3-Phosphoglycerate-Dehydrogenase Activity ([1]; 5 mM L-serine, without incubation) [%] | Relative 3-Phosphoglycerate-Dehydrogenase Activity ([1]; 10 mM L-serine, 5 minute incubation at 30° C.) [%] | Relative 3-Phosphoglycerate-Dehydrogenase Activity ([1]; 10 mM L-serine, without incubation) [%] | Relative 3-Phosphoglycerate-Dehydrogenase Activity [2] [%] | L-serine inhibition of the foreshortened mutant (in words) [3] | Relative 3-Phosphoglycerate-Dehydrogenase Activity ([3]; 10 mM L-serine, 5 minutes of incubation at 30° C.) [%] | share of the wild type activity ([4]; compared with overexpressed wild type) | overexpression / increase in specific 3-phosphoglycerate-dehydrogenase activity ([4]; with respect to the wild type protein) [fold] |
| --- | --- | --- | --- | --- | --- | --- | --- | --- | --- | --- | --- |
| N[C@@H](CO)C(=O)O [L-Serine, L-serine] | 96 | 106 | 82 | 112 | 56 | 104 | 34 | no longer was significantly limited | 95 |  |  |
| serAΔ197: serA allele coding for PGD with deletion of 197 C-terminal amino acids, SEQ ID No. 1 / 7 (protein, listed as Corynebacterium glutamicum) MSQNGRPVVLIADKLAQSTVDALGDAVEVRWVDGPNRPELLDAVKEADALLVRSATTVDAEVIAAAPNLKIVGRAGVGLDNVDIPAATEAGVMVANAPTSNIHSACEHAISLLLSTARQIPAADATLREGEWKRSSFNGVEIFGKTVGIVGFGHIGQLFAQRLAAFETTIVAYDPYANPARAAQLNVELVELDELMSRSDFVTIHLPKTKETAGMFDAQLLAKSKKGQIIINAARGGLVDEQALADAIESGHIRGAGFDVYSTEPCTDSPLFKLPQVVVTPHLGASTEEAQDRAGTDVADSVLKALAGEFVADAVNVSGGRVGEEVAVWMDLA |  |  |  |  |  |  |  |  |  | more than 60% | 10 |
